Source: ChEMBL document CHEMBL3885881, “DrugMatrix”

Organism: Rattus norvegicus
Assay: DrugMatrix - Regimen: Daily Repeat
Format: toxicity, organism-based, Sprague-Dawley
Parameters: regimen Daily Repeat, gender Male, age 6-8 weeks
Settings: in vivo, sc, […], route mini-PUMP - SUBCUTANEOUS, dose level High, vehicle 100 % SALINE; for ABSOLUTE LYMPHOCYTE / ABSOLUTE MONOCYTE / BASOPHIL / EOSINOPHIL / ERYTHROCYTE COUNT / HEMATOCRIT / HEMOGLOBIN / LEUKOCYTE COUNT / MEAN CORPUSCULAR HEMOGLOBIN / MEAN CORPUSCULAR HEMOGLOBIN CONCENTRATION / MEAN CORPUSCULAR VOLUME / MONOCYTE / NEUTROPHIL / PLATELET COUNT / ABSOLUTE BASOPHIL / ABSOLUTE EOSINOPHIL / ABSOLUTE SEGMENTED NEUTROPHIL / NUCLEATED RED BLOOD CELLS: tissue Blood
[1] = 0.5 mg/kg, tissue Plasma, time 14 day
[2] = 72 h, dose 0.72 mg/Kg, time 3 day
[3] = 72 h, tissue Plasma, dose 0.72 mg/Kg, time 3 day
[4] = 120 h, dose 0.72 mg/Kg, time 5 day
[5] = 120 h, tissue Plasma, dose 0.72 mg/Kg, time 5 day
[6] = tissue Plasma, dose 0.72 mg/Kg, time 14 day

SMILES: CC[C@H](C)[C@H](NC(=O)[C@H](Cc1ccc(O)cc1)NC(=O)[C@@H](NC(=O)[C@H](CCCNC(=N)N)NC(=O)[C@@H](N)CC(=O)O)C(C)C)C(=O)N[C@@H](Cc1cnc[nH]1)C(=O)N1CCC[C@H]1C(=O)N[C@@H](Cc1ccccc1)C(=O)O [ANGIOTENSIN II]
- ABSOLUTE LYMPHOCYTE (0.5 mg/kg, time 14 day): 9890 cells/µL
- ABSOLUTE MONOCYTE (0.5 mg/kg, time 14 day): 390 cells/µL
- BASOPHIL (0.5 mg/kg, time 14 day): 0.3%
- EOSINOPHIL (0.5 mg/kg, time 14 day): 0.46%
- ERYTHROCYTE COUNT (0.5 mg/kg, time 14 day): 7.14 x10E6/uL
- HEMATOCRIT (0.5 mg/kg, time 14 day): 45.2%
- HEMOGLOBIN (0.5 mg/kg, time 14 day): 14.82 G/DL
- LEUKOCYTE COUNT (0.5 mg/kg, time 14 day): 13.29 x10E3/uL
- MEAN CORPUSCULAR HEMOGLOBIN (0.5 mg/kg, time 14 day): 20.82 pg
- MEAN CORPUSCULAR HEMOGLOBIN CONCENTRATION (0.5 mg/kg, time 14 day): 32.78 G/DL
- MEAN CORPUSCULAR VOLUME (0.5 mg/kg, time 14 day): 63.38 fL
- MONOCYTE (0.5 mg/kg, time 14 day): 3.02%
- NEUTROPHIL (0.5 mg/kg, time 14 day): 20.78%
- PLATELET COUNT (0.5 mg/kg, time 14 day): 1204.2 x10E3/uL
- ALBUMIN [1]: 3.98 G/DL
- ALKALINE PHOSPHATASE [1]: 370.2 u/L
- ASPARTATE AMINOTRANSFERASE [1]: 94.8 u/L
- BLOOD UREA NITROGEN [1]: 19 mg/dL
- CARBON DIOXIDE [1]: 41 mmol/L
- CHOLESTEROL [1]: 66.8 mg/dL
- CREATINE PHOSPHOKINASE [1]: 324.4 u/L
- CREATININE [1]: 0.74 mg/dL
- GLUCOSE [1]: 138.2 mg/dL
- LACTATE DEHYDROGENASE [1]: 202.4 u/L
- PHOSPHORUS [1]: 9.74 mg/dL
- POTASSIUM [1]: 5.88 MEQ/L
- SODIUM [1]: 149.8 MEQ/L
- TOTAL BILIRUBIN [1]: 0.44 mg/dL
- URIC ACID [1]: 0.7 mg/dL
- ABSOLUTE BASOPHIL [2]: 0 CELLS/uL
- ABSOLUTE EOSINOPHIL [2]: 0 CELLS/uL
- ABSOLUTE LYMPHOCYTE [2]: 11891.33 CELLS/uL
- ABSOLUTE MONOCYTE [2]: 399.33 CELLS/uL
- ABSOLUTE SEGMENTED NEUTROPHIL [2]: 1676 CELLS/uL
- BASOPHIL [2]: 0%
- EOSINOPHIL [2]: 0%
- ERYTHROCYTE COUNT [2]: 6.49 x10E6/uL
- HEMATOCRIT [2]: 38.87%
- HEMOGLOBIN [2]: 14.23 G/DL
- LEUKOCYTE COUNT [2]: 13.97 x10E3/uL
- MEAN CORPUSCULAR HEMOGLOBIN [2]: 21.93 pg
- MEAN CORPUSCULAR HEMOGLOBIN CONCENTRATION [2]: 36.63 G/DL
- MEAN CORPUSCULAR VOLUME [2]: 59.9 fL
- MONOCYTE [2]: 2.67%
- NEUTROPHIL [2]: 12%
- NUCLEATED RED BLOOD CELLS [2]: 0 /100WBC
- PLATELET COUNT [2]: 1285 x10E3/uL
- ALBUMIN [3]: 4.4 G/DL
- ALKALINE PHOSPHATASE [3]: 340 u/L
- ASPARTATE AMINOTRANSFERASE [3]: 83.67 u/L
- BLOOD UREA NITROGEN [3]: 25.67 mg/dL
- CARBON DIOXIDE [3]: 28.67 mmol/L
- CHOLESTEROL [3]: 90.33 mg/dL
- CREATININE [3]: 0.22 mg/dL
- GLUCOSE [3]: 151.33 mg/dL
- LACTATE DEHYDROGENASE [3]: 469.67 u/L
- PHOSPHORUS [3]: 10.63 mg/dL
- POTASSIUM [3]: 5.96 MEQ/L
- SODIUM [3]: 143.73 MEQ/L
- TOTAL BILIRUBIN [3]: 0.2 mg/dL
- URIC ACID [3]: 2 mg/dL
- ABSOLUTE BASOPHIL [4]: 0 CELLS/uL
- ABSOLUTE EOSINOPHIL [4]: 202.67 CELLS/uL
- ABSOLUTE LYMPHOCYTE [4]: 15280.67 CELLS/uL
- ABSOLUTE MONOCYTE [4]: 168.67 CELLS/uL
- ABSOLUTE SEGMENTED NEUTROPHIL [4]: 1814.67 CELLS/uL
- BASOPHIL [4]: 0%
- EOSINOPHIL [4]: 1.33%
- ERYTHROCYTE COUNT [4]: 6.42 x10E6/uL
- HEMATOCRIT [4]: 38.03%
- HEMOGLOBIN [4]: 14.03 G/DL
- LEUKOCYTE COUNT [4]: 17.47 x10E3/uL
- MEAN CORPUSCULAR HEMOGLOBIN [4]: 21.87 pg
- MEAN CORPUSCULAR HEMOGLOBIN CONCENTRATION [4]: 36.9 G/DL
- MEAN CORPUSCULAR VOLUME [4]: 59.23 fL
- MONOCYTE [4]: 1%
- NEUTROPHIL [4]: 10.33%
- NUCLEATED RED BLOOD CELLS [4]: 0 /100WBC
- PLATELET COUNT [4]: 1412 x10E3/uL
- ALBUMIN [5]: 4.23 G/DL
- ALKALINE PHOSPHATASE [5]: 297.67 u/L
- ASPARTATE AMINOTRANSFERASE [5]: 85 u/L
- BLOOD UREA NITROGEN [5]: 26 mg/dL
- CARBON DIOXIDE [5]: 27.33 mmol/L
- CHOLESTEROL [5]: 71 mg/dL
- CREATININE [5]: 0.21 mg/dL
- GLUCOSE [5]: 137 mg/dL
- LACTATE DEHYDROGENASE [5]: 451.33 u/L
- PHOSPHORUS [5]: 11.73 mg/dL
- POTASSIUM [5]: 6.62 MEQ/L
- SODIUM [5]: 144.83 MEQ/L
- TOTAL BILIRUBIN [5]: 0.2 mg/dL
- URIC ACID [5]: 2.03 mg/dL
- ABSOLUTE BASOPHIL (dose 0.72 mg/Kg, time 14 day): 0 CELLS/uL
- ABSOLUTE EOSINOPHIL (dose 0.72 mg/Kg, time 14 day): 135.4 CELLS/uL
- ABSOLUTE LYMPHOCYTE (dose 0.72 mg/Kg, time 14 day): 12908 CELLS/uL
- ABSOLUTE MONOCYTE (dose 0.72 mg/Kg, time 14 day): 411.8 CELLS/uL
- ABSOLUTE SEGMENTED NEUTROPHIL (dose 0.72 mg/Kg, time 14 day): 3124.8 CELLS/uL
- BASOPHIL (dose 0.72 mg/Kg, time 14 day): 0%
- EOSINOPHIL (dose 0.72 mg/Kg, time 14 day): 0.8%
- ERYTHROCYTE COUNT (dose 0.72 mg/Kg, time 14 day): 6.73 x10E6/uL
- HEMATOCRIT (dose 0.72 mg/Kg, time 14 day): 38.96%
- HEMOGLOBIN (dose 0.72 mg/Kg, time 14 day): 14.36 G/DL
- LEUKOCYTE COUNT (dose 0.72 mg/Kg, time 14 day): 16.58 x10E3/uL
- MEAN CORPUSCULAR HEMOGLOBIN (dose 0.72 mg/Kg, time 14 day): 21.34 pg
- MEAN CORPUSCULAR HEMOGLOBIN CONCENTRATION (dose 0.72 mg/Kg, time 14 day): 36.86 G/DL
- MEAN CORPUSCULAR VOLUME (dose 0.72 mg/Kg, time 14 day): 57.88 fL
- MONOCYTE (dose 0.72 mg/Kg, time 14 day): 2.6%
- NEUTROPHIL (dose 0.72 mg/Kg, time 14 day): 17.8%
- NUCLEATED RED BLOOD CELLS (dose 0.72 mg/Kg, time 14 day): 0 /100WBC
- PLATELET COUNT (dose 0.72 mg/Kg, time 14 day): 976.2 x10E3/uL
- ALBUMIN [6]: 4.22 G/DL
- ALKALINE PHOSPHATASE [6]: 388 u/L
- ASPARTATE AMINOTRANSFERASE [6]: 100.6 u/L
- BLOOD UREA NITROGEN [6]: 31 mg/dL
- CARBON DIOXIDE [6]: 34.2 mmol/L
- CHOLESTEROL [6]: 70.6 mg/dL
- CREATININE [6]: 0.27 mg/dL
- GLUCOSE [6]: 174 mg/dL
- LACTATE DEHYDROGENASE [6]: 122.4 u/L
- PHOSPHORUS [6]: 11.92 mg/dL
- POTASSIUM [6]: 5.67 MEQ/L
- SODIUM [6]: 147.54 MEQ/L
- TOTAL BILIRUBIN [6]: 0.2 mg/dL
- URIC ACID [6]: 2.4 mg/dL
